Where two headings read alike, the source gives them in different places.
Key:
[1] = in vivo; conditions: mouse, iv, LD-50 I.V. mice
[2] = system: femoral artery; experiment: Comparative assays: femoral vasodilating action (MVD) in nembutal-anesthetized dogs, I.D. route; type: in vivo; design: key to MVD (minimum dose inducing a femoral vasodilating action): (g): no vasodilating action per I.D. route; conditions: for minimal effective dose: Canis lupus familiaris, intraduodenal, read-out: MVD (minimum dose inducing in nembutal-anesthetized dogs a femoral vasodilating action); for therapeutical index (MVD/LD50 ratio): MVD I.D. dogs / LD50 I.V. mice
Text: (e) minimum dose inducing in nembutalanesthetized dogs a femoral
vasodilating action (tested products being administered per I.D. route).

[3] = system: Salmonella typhimurium
[4] = system: mice; experiment: Toxicity in mice, intraperitoneal route; type: in vivo
[5] = Solubility in water; type: physicochemical; conditions: white powder, very soluble in water
[6] = system: rabbit ear microcirculation; experiment: Action on rabbit ear microcirculation; type: in vivo; conditions: gastric route, awakened Half Top rabbits
Procedure: […] in an aqueous solution at pH 6.5 (prepared extemporaneously) is administered by gastric route to Half Top rabbit batches (3 males, average weight: […]; and 3 females, average weight 3.3 kg) under a volume of 2 ml/kg. The very same animals used as control animals against themselves receive distilled water per gastric route, under the very same volume. The following parameters are measured: the terminal arteriole diameter, the terminal veinule diameter, the arteriolar pulsatility, the ear cutaneous temperature, the heart rate and the rectal temperature.

[7] = system: nembutal-anesthetized dogs; experiment: Cardiovascular study in nembutal-anesthetized dogs, intraduodenal administration (then I.V.); type: in vivo; conditions: for minimal effective dose: Canis lupus familiaris, intraduodenal
Procedure: (§1) The study of the cardiovascular properties has been performed on nembutal-anesthetized dogs, CRL 41 339 being administered intra-duodenallyin solution in physiological saline (bidistilled water containing 9 g/l of NaCl) at pH 7.5 (the maximum concentration of CRL 41 339 used being of 32.4 mg/ml).
(§2) Three dogs (average weight: 14.3 kg), anesthetized with nembutal, receive CRL 41 339 by intraduodenal administration at successive doses of 0.1 mg/kg, 0.5 mg/kg, 1 mg/kg, 2.5 mg/kg, 5 mg/kg and 10 mg/kg, then two of these dogs receive a supplemental dose of CRL 41 339 (10 mg/kg) by intravenous administration.
(§3) The arterial blood pressure, the heart rate, the blood flow through the femoral artery, the blood flow through the vertebral artery and the rectal and cutaneous temperatures are measured.

[8] = system: femoral artery; experiment: Comparison of salts: femoral artery flow in nembutal-anesthetized dogs, I.A. route; type: in vivo; conditions: Ex 1 at pH 6, Ex 2 and Ex 3 at pH 4, dose 0: 64, 64, 79, average of 5 assays
Procedure: Three dogs anesthetized with nembutal and having an average weight of 12.9 kg are used as control animals vis-a-vis themselves, and are administered per I.A. route in the femoral artery with phenyl-(3-hexamethyleneiminopropyl)-ketone hydrochloride, fumarate and citrate (Ex 1, Code No.: CRL 41 339; Ex 2, Code No.: CRL 41 339A; and respectively Ex 3, code No.: CRL 41 339B), at equimolar doses.

[9] = system: mice
[10] = system: noradrenaline; experiment: Noradrenaline-induced hypertension after CRL 41 339 in anesthetized dogs; type: in vivo; conditions: for systolic blood pressure with noradrenaline: 2 μg/kg noradrenaline after 19.1 mg/kg I.D. accumulated; for systolic blood pressure before noradrenaline: after 19.1 mg/kg I.D. accumulated
Procedure: as §1, §2, §3
It is also observed that the noradrenaline-induced hypertension is reduced by CRL 41 339 (at an accumulated dose of 19.1 mg/kg I.D.):
with 2 μg/kg of noradrenaline the systolic blood pressure increases from 160 mm Hg (i.e. about 2.1×10^4 Pa) to 253 mm Hg (i.e. about 3.3×10^4 Pa) after administration of CRL 41 339 at an accumulated dose of 19.1 mg/kg I.D., while in the control animals, (anesthetized dogs receiving only noradrenaline) the blood systolic pressure increases from 181 mm Hg (i.e. about 2.4×10^4 Pa) to 301 mm Hg (i.e. about 4×10^4 Pa).

[11] = system: adult human beings; experiment: Clinical assays in adult human beings; type: in vivo; conditions: arteritis manifestations and ulcers of arterial or venous origin in lower limbs
Text: In clinical trials, good results were obtained on adult human beings after administration of CRL 41 339 as vasodilating agent, in particular in the treatment of (i) arteritis manifestations in lower limbs, and (ii) ulcers of arterial or venous origin in lower limbs.

[12] = system: perfused hind quarters of rats; experiment: Action on perfused hind quarters of rats; type: in vivo
[13] = system: external saphenous vein; experiment: Action on isolated dog vessels: external saphenous vein; conditions: n=4
Procedure: (§4) Annuli of femoral arteriae and external saphenous veins of nembutal-anesthetized dogs are cut off and placed into aerated (O2 : 96%; CO2 : 4%, by volume) Krebs-Henseleit, kept at 37° C. and subjected to a 0.5 g stretching. These vessels are constricted either with noradrenaline 10^-5 M in the presence of propanolol 10^-6 M, or with KCl 50 mM in the presence of phentolamine 3×10^-6 M. CRL 41 339 is tested at accumulated doses.

[14] = system: isoprenaline; experiment: Effects of isoprenaline after CRL 41 339 in anesthetized dogs; type: in vivo
Procedure: as §1, §2, §3
with 1 μg/kg of isoprenaline, the diastolic blood pressure changes from 117 mm Hg (i.e. about 1.5×10^4 Pa) to 37 mm Hg (i.e. about 4.9×10^3 Pa) after CRL 41 339, instead of changing from 144 mm Hg (i.e. about 1.9×10^4 Pa) to 36 mm Hg (i.e. about 4.8×10^3 Pa) in the control animals (i.e. anesthetized dogs receiving only isoprenaline), and the heart rate changes from 175 beats/minute to 238 beats/minute after CRL 41 339, while in the control animals said heart rate increases from 188 beats/minute to 253 beats/minute.

[15] = system: femoral artery; experiment: Action on isolated dog vessels: femoral artery; conditions: n=5
Procedure: as §4

[16] = 10 mg/kg I.V., supplemental to I.D. doses
[17] = nembutal-anesthetized, noradrenaline-constricted
[18] = KCl 50 mM with phentolamine 3×10^-6 M
[19] = noradrenaline 10^-5 M with propanolol 10^-6 M
[20] = after accumulated dose of 19.1 mg/kg I.D.

## COc1cc(OC)c(C(=O)CCCN2CCCC2)c(OC)c1.Cl [A-1, (2,4,6-trimethoxyphenyl)-(3-pyrrolidinopropyl)-ketone hydrochloride]
[1]
  LD50: 60 mg/kg
[2]; dogs, I.D. route
  minimal effective dose: 6 mg/kg
[2]
  therapeutical index (MVD/LD50 ratio): 0.100

## COc1cc(OC)c(C(=O)CCCN2CCCCCC2)c(OC)c1.Cl [A-2, (2,4,6-trimethoxyphenyl)-(3-hexamethyleneiminopropyl)-ketone hydrochloride]
[1]
  LD50: 96 mg/kg
[2]; dogs, I.D. route
  minimal effective dose: 5 mg/kg
[2]
  therapeutical index (MVD/LD50 ratio): 0.053

## COc1cc(OC)c(C(=O)CCCN2CCCCC2)c(OC)c1 [A-3]
[2]; dogs, I.D. route
  MVD (minimum dose inducing a femoral vasodilating action): (g)

## Cl.O=C(CCCN1CCCCCC1)c1ccccc1 [Ex 1, phenyl-(3-hexamethyleneiminopropyl)-ketone hydrochloride]
[3]
  mutagenic activity: devoid of mutagenic activity
[4]
  LD-30 (lethal dose for 30% of the treated animals): about 128 mg/kg
  LD-100 (minimum lethal dose for all the treated animals): ≤ 256 mg/kg
  LD-O (maximum non-lethal dose): higher than 64 mg/kg
[5]
  solubility: 100 mg/mL
[6]
  arteriolar pulsatility: stronghly increases
  arteriolar pulsatility/heart rate ratio: stronghly increases
  duration of terminal arteriole dilation: 0.5 h
  ear cutaneous temperature: important and lasting increase
  heart rate: without modifying the heart rate
  terminal arteriole diameter: moderately dilates
  veinular diameter: no action
[7]; [16]
  blood pressure effect of supplemental I.V. dose: hypotension
  heart rate effect of supplemental I.V. dose: bradycardia
[7]; I.D., accumulated dose, read-out: accumulated dose as from which femoral artery flow is highly increased
  minimal effective dose: 4.1 mg/kg
[7]; I.D., single successive dose, read-out: dose as from which femoral artery flow is highly increased
  minimal effective dose: 2.5 mg/kg
[7]; I.D. route
  blood arterial pressure: does not modify
  heart beat: does not modify
  respiration rate: reduces the respiration rate
[7]; I.D., as from the dose of 2.5 mg/kg (accumulated 4.1 mg/kg)
  femoral artery flow: highly increases
[8]; dose 10^-5 M
  Femoral flow: 166 mL/min
[8]; dose 10^-6 M
  Femoral flow: 117 mL/min
[8]; dose 10^-7 M
  Femoral flow: 83 mL/min
[1]
  LD50: 128 mg/kg
[9]; mouse, in vivo
  superiority as regards toxicity: superiority
[9]; vs LL 1656 and CRL 41 080
  toxicity compared with reference compounds: less toxic
[10]; controls 301
  systolic blood pressure with noradrenaline: 253 mm Hg
[10]; controls about 4×10^4 Pa
  systolic blood pressure with noradrenaline: about 3.3×10^4 Pa
[10]; accumulated dose of 19.1 mg/kg I.D.
  noradrenaline-induced hypertension: reduced
[10]; controls 181
  systolic blood pressure before noradrenaline: 160 mm Hg
[10]; controls about 2.4×10^4 Pa
  systolic blood pressure before noradrenaline: about 2.1×10^4 Pa
[2]; I.D. route, vs LL 1656 and CRL 41 080
  vasodilating activity compared with reference compounds: more active as a vasodilating substance per introduodenal route
[2]
  therapeutical index (MVD/LD50 ratio): 0.032
[2]; vs A-1, A-2, A-3
  superiority as regards peripheral vasodilating activity: superiority
[11]
  clinical trials, as vasodilating agent: good results
[12]; believed to be involved in the vasodilating activity
  anti-noradrenaline activity: important anti-noradrenaline activity
[12]; [17]
  duration of vasodilating effect: increases with the dose
  vasodilating effect on hind quarters of rats: important vasodilating effect
[13]; Canis lupus familiaris, noradrenaline 10^-5 M with propanolol 10^-6 M, read-out: CI-50 (molar concentration which reduces of 50% the contraction), vein
  IC50: 130 µM
[13]; [18]
  action on external saphenous vein constriction induced by KCl: no action
[13]; [19]
  action on vein constricted by noradrenaline: slakening
[14]; 1 μg/kg isoprenaline after CRL 41 339 (19.1 mg/kg I.D. accumulated), controls 36
  diastolic blood pressure with isoprenaline: 37 mm Hg
[14]; 1 μg/kg isoprenaline after CRL 41 339 (19.1 mg/kg I.D. accumulated), controls 253
  heart rate with isoprenaline: 238 beats/minute
[14]; 1 μg/kg isoprenaline after CRL 41 339 (19.1 mg/kg I.D. accumulated), controls about 4.8×10^3 Pa
  diastolic blood pressure with isoprenaline: about 4.9×10^3 Pa
[14]; after CRL 41 339 (19.1 mg/kg I.D. accumulated), controls 144
  diastolic blood pressure before isoprenaline: 117 mm Hg
[14]; after CRL 41 339 (19.1 mg/kg I.D. accumulated), controls 188
  heart rate before isoprenaline: 175 beats/minute
[14]; after CRL 41 339 (19.1 mg/kg I.D. accumulated), controls about 1.9×10^4 Pa
  diastolic blood pressure before isoprenaline: about 1.5×10^4 Pa
[14]; [20]
  effects of isoprenaline as regards the diastolic blood pressure: not modified
  effects of isoprenaline as regards the heart rate: slightly reduced
[15]; Canis lupus familiaris, noradrenaline 10^-5 M with propanolol 10^-6 M, read-out: CI-50 (molar concentration which reduces of 50% the contraction), artery
  IC50: 5.9 µM
[15]; [18]
  action on femoral artery constriction induced by KCl: no action
[15]; [19]
  action on artery constricted by noradrenaline: slakening

## O=C(CCCN1CCCCCC1)c1ccccc1.O=C(O)/C=C/C(=O)O [Ex 2, phenyl(3-hexamethyleneiminopropyl)-ketone fumarate]
[8]; dose 10^-5 M
  Femoral flow: 168 mL/min
[8]; dose 10^-6 M
  Femoral flow: 117 mL/min
[8]; dose 10^-7 M
  Femoral flow: 76 mL/min

## O=C(CCCN1CCCCCC1)c1ccccc1.O=C(O)CC(O)(CC(=O)O)C(=O)O [Ex 3, phenyl(3-hexamethyleneiminopropyl)-ketone citrate]
[8]; dose 10^-5 M
  Femoral flow: 197 mL/min
[8]; dose 10^-6 M
  Femoral flow: 127 mL/min
[8]; dose 10^-7 M
  Femoral flow: 90 mL/min
